The supplement of paper PMC13380429
± gives the standard deviation of the averaged measurements.

What was measured:
Settings in all cases: 72 h
Caco-2 [1] = assay: cell viability relative to DMSO; higher = less toxic
HepG2 [2] = assay: as above
U2OS [3] = assay: as above
Vero E6 [4] = assay: as above
Caco-2 [5] = assay: relative viability EC50 (midpoint between 100% and the lowest measured viability); higher = less toxic
HepG2 [6] = assay: as above
U2OS [7] = assay: as above
Vero E6 [8] = assay: as above
Caco-2 [9] = assay: drug sensitivity score (DSS) for viability; higher = more toxic; extreme values may be limits of the assay
HepG2 [10] = assay: as above
U2OS [11] = assay: as above
Vero E6 [12] = assay: as above
Calu-3 [13] = assay: cell viability relative to DMSO; higher = less toxic
Calu-3 [14] = assay: relative viability EC50 (midpoint between 100% and the lowest measured viability); higher = less toxic
Calu-3 [15] = assay: drug sensitivity score (DSS) for viability; higher = more toxic; extreme values may be limits of the assay

Compound	cell viability (Caco-2 [1]; 1 nM)	cell viability (Caco-2 [1]; 10 nM)	cell viability (Caco-2 [1]; 100 nM)	cell viability (Caco-2 [1]; 1000 nM)	cell viability (Caco-2 [1]; 10000 nM)	cell viability (HepG2 [2]; 1 nM)	cell viability (HepG2 [2]; 10 nM)	cell viability (HepG2 [2]; 100 nM)	cell viability (HepG2 [2]; 1000 nM)	cell viability (HepG2 [2]; 10000 nM)	cell viability (U2OS [3]; 1 nM)	cell viability (U2OS [3]; 10 nM)	cell viability (U2OS [3]; 100 nM)	cell viability (U2OS [3]; 1000 nM)	cell viability (U2OS [3]; 10000 nM)	cell viability (Vero E6 [4]; 1 nM)	cell viability (Vero E6 [4]; 10 nM)	cell viability (Vero E6 [4]; 100 nM)	cell viability (Vero E6 [4]; 1000 nM)	cell viability (Vero E6 [4]; 10000 nM)	relative viability EC50 (Caco-2 [5])	relative viability EC50 (HepG2 [6])	relative viability EC50 (U2OS [7])	relative viability EC50 (Vero E6 [8])	drug sensitivity score (Caco-2 [9])	drug sensitivity score (HepG2 [10])	drug sensitivity score (U2OS [11])	drug sensitivity score (Vero E6 [12])	cell viability (Calu-3 [13]; 1 nM)	cell viability (Calu-3 [13]; 10 nM)	cell viability (Calu-3 [13]; 100 nM)	cell viability (Calu-3 [13]; 1000 nM)	cell viability (Calu-3 [13]; 10000 nM)	relative viability EC50 (Calu-3 [14])	drug sensitivity score (Calu-3 [15])
CC(C)c1ccccc1S(=O)(=O)c1cc(N)c2ncccc2c1[N+](=O)[O-]	98.7%	102%	99.1%	97.3%	89.8%	100%	95.8%	100%	89.9%	110%	99.7%	102%	96.3%	98.5%	93.7%	98%	103%	107%	102%	100%	> 10 µM	> 10 µM	> 10 µM	> 10 µM	0	0	0	0	–	–	–	–	–	–	–
CCn1cc(-c2ccnc3[nH]c(-c4cccc(CN(C)C)c4)cc23)c(-c2ccc(NC(=O)N(C)C)cc2)n1	96.3%	95.7%	98%	93.1%	56.2%	106%	105%	77.8%	72.3%	20.1%	–	–	–	–	–	103%	104%	98.5%	82%	63.5%	–	1.19 µM	–	–	3.4	8.1	–	3.8	97.8%	110%	81.9%	97.7%	81.9%	> 10 µM	0.6
COc1cc2ncn(-c3cc(OCc4ccccc4C(F)(F)F)c(C(N)=O)s3)c2cc1OC	102%	95.5%	102%	73.4%	62.3%	95.6%	108%	105%	50%	26.5%	102%	97.8%	102%	94.4%	89.4%	104%	96%	98.8%	69.1%	57.5%	–	0.743 µM	> 10 µM	–	4.9	9.9	0.1	5.9	95.9%	101%	95.4%	90%	86.1%	> 10 µM	0.5
Cc1c(Cn2c(C)nc3c(C(=O)O)cc(N4CCOCC4)cc32)cccc1C(F)(F)F	102%	97.3%	91.2%	93.1%	84.9%	–	–	–	–	–	95.7%	104%	96.2%	99%	91.3%	97.2%	101%	93.1%	84.4%	58.9%	> 10 µM	–	> 10 µM	–	0.5	–	0	3.6	110%	101%	97%	94.4%	86%	> 10 µM	0.2
O=C1NCCc2[nH]c(-c3ccncc3)cc21	96.1%	93.6%	94.2%	94.9%	38.5%	91.4%	102%	92.4%	33.1%	9.5%	95.2%	104%	93.6%	95.3%	5.8%	98%	98.2%	98.1%	85.7%	13.5%	2.48 µM	0.499 µM	2.77 µM	1.9 µM	4.2	13.6	5.9	7.2	94%	94.6%	94.6%	79.5%	53.6%	–	4.6
c1ccc(C[C@H](c2ccccc2)N2CCCCC2)cc1 (racemic) [1-(1,2-diphenylethyl)piperidine-(+/-)]	91.2%	93.9%	101%	100%	103%	92.9%	103%	96.5%	100%	86.8%	104%	93.8%	98.7%	98.9%	105%	92.6%	97.7%	92.2%	97.1%	102%	> 10 µM	> 10 µM	> 10 µM	> 10 µM	0	0.1	0	0	–	–	–	–	–	–	–
NCC(O)(CS(=O)(=O)O)c1ccc(Cl)cc1 (centres undefined) [2-hydroxysaclofen]	98.4%	96.2%	91.4%	98.6%	96.3%	101%	98.5%	89.4%	90.3%	98.8%	104%	94.8%	94.9%	103%	97.4%	100%	98.1%	102%	97.2%	97.5%	> 10 µM	> 10 µM	> 10 µM	> 10 µM	0	0.3	0	0	–	–	–	–	–	–	–
CCn1c(O)nnc1-c1ccc(Cl)cc1 [5-(4chlorophenyl)-4-ethyl-2,4-dihydro-3H-1,2,4-triazol-3-one]	116%	112%	112%	91.6%	79.1%	112%	111%	102%	98.3%	94.7%	100%	103%	99.8%	98.1%	78.6%	97.9%	102%	102%	106%	79.6%	> 10 µM	> 10 µM	> 10 µM	> 10 µM	1.6	0	1	0.4	–	–	–	–	–	–	–
CC(=O)O[C@]1(C(C)=O)CC[C@H]2[C@@H]3C=CC4=CC(=O)CC[C@]4(C)[C@H]3CC[C@@]21C [6,7-dehydro-17-acetoxy-progesterone]	95.6%	97.5%	93.7%	92.8%	92.6%	102%	103%	105%	105%	98%	96.4%	99.6%	97.3%	101%	94.8%	106%	99.5%	104%	98.1%	98.2%	> 10 µM	> 10 µM	> 10 µM	> 10 µM	0	0	0	0	–	–	–	–	–	–	–
c1ccc(CNCc2ccc(CN3CCCNCCNCCCNCC3)cc2)nc1 [AMD-3465]	105%	100%	102%	100%	96.2%	102%	101%	101%	103%	97.3%	102%	99.3%	101%	99%	103%	–	–	–	–	–	> 10 µM	> 10 µM	> 10 µM	–	0	0	0	–	102%	97.5%	94.1%	101%	115%	> 10 µM	0
COc1cc2ncnc(Nc3cccc(Cl)c3F)c2cc1OC(=O)N1CCN(C)C[C@H]1C [AZD3759]	94.4%	91.1%	91.2%	90.1%	81.9%	101%	86.6%	104%	95.8%	101%	96.8%	101%	95.6%	95.6%	92.8%	94.7%	90.3%	81.8%	60.8%	51.6%	> 10 µM	> 10 µM	> 10 µM	–	1.1	0	0	9.3	86.5%	93.6%	93.1%	48.4%	32.2%	0.442 µM	10.6
CC(C)C[C@@H](NC(=O)[C@H](Cc1ccccc1)NC(=O)CNC(=O)[C@@H](C)NC(=O)[C@@H](N)Cc1ccc(O)cc1)C(=O)O [BW-180C]	113%	96.9%	98.6%	102%	101%	105%	98.4%	99.4%	102%	100%	99.4%	97.8%	104%	104%	99.1%	–	–	–	–	–	> 10 µM	> 10 µM	> 10 µM	–	0	0	0	–	97.6%	94.5%	91.1%	100%	89.4%	> 10 µM	0
O[C@H]1CC[C@H](Nc2ncc3nc(Nc4c(F)cc(F)cc4F)n([C@H]4CCOC4)c3n2)CC1 [CC-930]	99.1%	102%	102%	96.7%	86.1%	104%	102%	93.5%	97.1%	89.6%	97.3%	104%	95%	96.7%	91.1%	98.5%	97%	98.3%	93.7%	73.4%	> 10 µM	> 10 µM	> 10 µM	–	0.4	0	0	2	101%	100%	104%	87.5%	81.7%	> 10 µM	1.6
Cn1nccc1Nc1nccc(-c2ccn([C@H](CO)c3ccc(Cl)c(F)c3)c(=O)c2)n1 [GDC-0994]	97.6 ± 3.7%	98.4 ± 3.1%	87.8 ± 2.5%	82.4 ± 5.8%	79.9 ± 6.7%	106.8 ± 0.57%	96.8 ± 3%	74.8 ± 3.2%	38.2 ± 1.2%	40.6 ± 3.4%	96.9 ± 0.14%	101.3 ± 0.99%	92.2 ± 3.8%	97.4 ± 0.85%	96.8 ± 2.9%	104 ± 7.4%	101 ± 3.4%	101 ± 5.4%	87.75 ± 0.35%	70.9 ± 5.8%	> 10 µM	0.119 µM	> 10 µM	–	3.15 ± 2.6	14.5 ± 0.28	0	2.6 ± 0.28	99.2 ± 6.9%	103 ± 3%	97.9 ± 7.3%	96.45 ± 0.78%	110 ± 4.3%	> 10 µM	0
COC[C@H](C)Oc1cc(O[C@@H](C)Cc2ccccc2)cc(C(=O)Nc2ccc(C(=O)O)cn2)c1 [GKA-50]	100%	97%	96.2%	96.2%	92.7%	112%	105%	99.5%	120%	113%	103%	104%	103%	99.4%	98.8%	–	–	–	–	–	> 10 µM	> 10 µM	> 10 µM	–	0	0	0	–	96.9%	103%	97.8%	107%	98.2%	> 10 µM	0
Cc1ccc2c(c1)Cc1c(C(=O)NC3CCCCC3)nn(-c3ccc(Cl)cc3Cl)c1-2 [GP2a]	91.8%	89.6%	97.3%	95.4%	91.7%	100%	102%	99%	88.9%	99.7%	95.8%	99.4%	97.4%	105%	102%	99.5%	96.2%	99.8%	100%	100%	> 10 µM	> 10 µM	> 10 µM	> 10 µM	0	0	0	0	–	–	–	–	–	–	–
